In US6831075B2, “Heterocyclic substituted pyrazolones” (Cephalon, Inc., priority 1999, dated 2004):

Key:
Assay type in all cases: biochemical
[1] = target: T1, recombinant human baculovirus-expressed VEGFR1 cytoplasmic domain (Homo sapiens, UniProt P17948); assay: VEGFR1 kinase inhibition assay (ELISA-based, time-resolved fluorescence); conditions: 1 uM compound, 30 μM ATP; for inhibition at 1 µM: read-out: VEGFR-1 kinase % inhibition @ 1 uM
T1 construct: recombinant human baculovirus-expressed VEGFR1 cytoplasmic domain; host or cells: baculovirus expression system
T1 sequence (P17948 781-1338 limits assumed): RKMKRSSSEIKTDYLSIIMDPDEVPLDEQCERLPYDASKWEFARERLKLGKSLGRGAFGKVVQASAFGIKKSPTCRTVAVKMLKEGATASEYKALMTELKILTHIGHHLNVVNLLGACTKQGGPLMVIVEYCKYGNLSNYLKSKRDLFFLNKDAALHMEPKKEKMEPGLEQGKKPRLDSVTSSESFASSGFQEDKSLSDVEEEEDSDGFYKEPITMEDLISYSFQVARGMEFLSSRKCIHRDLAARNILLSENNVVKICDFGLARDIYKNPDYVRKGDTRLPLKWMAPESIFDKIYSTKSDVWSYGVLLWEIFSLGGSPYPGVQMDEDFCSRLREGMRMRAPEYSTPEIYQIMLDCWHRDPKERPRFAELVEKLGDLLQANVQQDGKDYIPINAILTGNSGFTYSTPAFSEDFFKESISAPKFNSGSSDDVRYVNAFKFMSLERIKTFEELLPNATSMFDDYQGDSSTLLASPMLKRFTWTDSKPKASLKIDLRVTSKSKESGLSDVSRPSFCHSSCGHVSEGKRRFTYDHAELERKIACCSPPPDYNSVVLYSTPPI
Description: Inhibition of Vascular Endothelial Growth Factor Receptor-1 Kinase Activity
The VEGFR1 kinase activity assay utilizes an ELISA-based format in a 96-well FluoroNUNC Maxisorp plate with a time-resolved fluorescence readout. The plate was coated with 100 μl/well of substrate solution (recombinant human PLC-γ/GST) at a concentration of 40 μg/ml in Tris buffered saline (TBS). The VEGFR1 activity was assayed in 100-μl assay micture containing 50 mM HEPES (pH 7.4), 30 μM ATP, 10 mM MnCl2, 0.1% BSA, 2% DMSO, and 300 ng/ml prephosphorylated recombinant human baculovirus-expressed VEGFR1 cytoplasmic domain. Compounds were screened for inhibition of the VEGFR1 kinase activity at a concentration of 1 μM. The kinase reaction was allowed to proceed at 37° C. for 15 minutes. The detection antibody, europium-labeled anti-phosphotyrosine antibody (Wallac #CR04-100), was added at 1:5000 dilution in block buffer (3% BSA in TBST). After a 1-hour incubation at 37° C., 100 μl of enhancement solution (Wallac #1244-105) was added and the plate was gently agitated. After 5 min, the fluorescence of the resulting solution was measured using the BMG Fluostar (Model # 403).

[2] = target: T2, baculoviral GST-MLK2KDLZ (Homo sapiens, UniProt Q02779); assay: Mixed Lineage Kinase-2 inhibition assay (Millipore Multiscreen plate, 32P); conditions: 1 uM compound, 100 μM ATP; for inhibition at 1 µM: read-out: MLK-2 Kinase % inhibition @ 1 uM
T2 construct: 3 μg/ml of baculoviral GST-MLK2KDLZ; GST (N); host or cells: baculovirus expression system
Description: Inhibition of Mixed Lineage Kinase-2 Activity
(§1) Assays were performed using the Millipore Multiscreen plate format as described for MLK1. Each 50-μl assay mixture contained 20 mM Hepes, pH 7, 1 mM EGTA, 10 mM MgCl2, 1 mM DTT, 25 mM β-glycerophosphate, 100 μM ATP, 0.25 μCi [γ-^32P]ATP, 0.1% BSA, 500 μg/ml myelin basic protein (UBI #13-104), 2% DMSO, various concentrations of test compound, and 3 μg/ml of baculoviral GST-MLK2KDLZ. Samples were incubated for 15 min. at 37° C. The reaction was stopped by adding ice cold 50% TCA and the proteins were allowed to precipitate for 30 min at 4° C. The plates were then washed with ice cold 25% TCA Supermix scintillation cocktail was added, and the plates were allowed to equilibrate for 1-2 hours prior to counting.

[3] = target: T3, baculoviral GST-MLK3KD (Homo sapiens, UniProt Q16584); assay: Mixed Lineage Kinase-3 inhibition assay (Millipore Multiscreen plate, 32P); conditions: 1 uM compound, 100 μM ATP; for inhibition at 1 µM: read-out: MLK-3 Kinase % inhibition @ 1 uM
T3 construct: 2 μg/ml of baculoviral GST-MLK3KD; GST (N); host or cells: baculovirus expression system
Description: Inhibition of Mixed Lineage Kinase-3 Activity
as §1, with “MLK1. Briefly, each” for “MLK1. Each”, “and 2” for “and 3”, “baculoviral GST-MLK3KD.” for “baculoviral GST-MLK2KDLZ.”, “15 min” for “15 min.”, “25% TCA.” for “25% TCA”

[4] = target: T4, recombinant human baculovirus-expressed FGFR1 cytoplasmic domain (Homo sapiens, UniProt P11362); assay: FGFR1 kinase inhibition assay (ELISA-based, time-resolved fluorescence); conditions: 1 uM compound; 20 μM ATP
T4 construct: recombinant human baculovirus-expressed FGFR1 cytoplasmic domain; host or cells: baculovirus expression system
Description: Inhibition of Fibroblast Growth Factor Receptor-1 (FGFR1) Kinase Activity
The FGFR1 kinase activity was measured using an ELISA-based format in a 96-well FluoroNUNC Maxisorp plate with a time-resolved fluorescence readout as described for trkA kinase. The plate was coated with 100 μl/well of substrate solution (recombinant human PLC-γ/GST) at a concentration of 10 μg/ml in Tris buffered saline (TBS). The FDGFR1 activity was assayed in 100-μl assay micture containing 50 mM HEPES (pH 7.4), 20 μM ATP, 10 mM MnCl2, 0.1% BSA, 2% DMSO, and 15 ng/ml recombinant human baculovirus-expressed FGFR1 cytoplasmic domain (prephosphorylated prior to use). Compounds were screened for inhibition of the FGFR1 kinase activity at a conentration of 1 μM. The kinase reaction was allowed to proceed at 37° C. for 15 minutes. The detection antibody, europium-labeled anti-phosphotyrosine antibody (Wallace #CR04-100), was added at 1:5000 dilution in block buffer (3% BSA in TBST). After a 1-hour incubation at 37° C., 100 μl of enhancement solution (Wallac #1244-105) and the plate was gently agitated. After 5 min, the fluorescence of the resulting solutions measured using the BMG Fluostar (Model # 403).

T4 sequence (P11362 398-822 limits assumed): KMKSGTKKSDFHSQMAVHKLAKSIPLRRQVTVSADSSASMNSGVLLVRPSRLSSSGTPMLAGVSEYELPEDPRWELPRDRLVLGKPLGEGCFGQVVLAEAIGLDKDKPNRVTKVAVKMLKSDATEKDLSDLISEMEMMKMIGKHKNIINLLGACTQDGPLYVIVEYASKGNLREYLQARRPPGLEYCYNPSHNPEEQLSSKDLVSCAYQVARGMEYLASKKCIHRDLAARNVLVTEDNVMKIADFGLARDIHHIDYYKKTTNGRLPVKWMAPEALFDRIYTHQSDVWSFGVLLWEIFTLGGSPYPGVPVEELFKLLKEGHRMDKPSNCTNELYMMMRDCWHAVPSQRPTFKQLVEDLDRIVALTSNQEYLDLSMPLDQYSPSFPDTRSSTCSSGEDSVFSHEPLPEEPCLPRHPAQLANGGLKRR
T3 sequence (Q16584 117-379 limits assumed): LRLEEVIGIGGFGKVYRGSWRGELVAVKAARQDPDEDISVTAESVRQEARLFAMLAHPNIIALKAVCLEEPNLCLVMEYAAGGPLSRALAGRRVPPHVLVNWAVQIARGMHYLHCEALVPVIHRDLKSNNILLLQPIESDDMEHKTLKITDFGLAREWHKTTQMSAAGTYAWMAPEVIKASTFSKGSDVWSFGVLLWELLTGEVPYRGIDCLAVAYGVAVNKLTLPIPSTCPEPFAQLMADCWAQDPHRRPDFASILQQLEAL
T2 sequence (Q02779 98-440 limits assumed): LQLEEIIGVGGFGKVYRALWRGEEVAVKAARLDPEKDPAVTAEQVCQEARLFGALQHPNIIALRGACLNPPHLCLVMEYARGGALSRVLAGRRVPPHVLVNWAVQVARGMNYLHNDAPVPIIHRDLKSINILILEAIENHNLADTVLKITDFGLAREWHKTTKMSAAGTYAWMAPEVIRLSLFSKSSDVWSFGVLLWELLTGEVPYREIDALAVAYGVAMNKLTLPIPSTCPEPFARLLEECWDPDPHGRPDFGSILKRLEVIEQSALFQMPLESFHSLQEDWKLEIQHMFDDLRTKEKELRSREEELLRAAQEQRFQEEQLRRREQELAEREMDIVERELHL

| SMILES | VEGFR-1 kinase % inhibition @ 1 uM [1] | MLK-2 Kinase % inhibition @ 1 uM [2] | MLK-3 Kinase % inhibition @ 1 uM [3] | FGFR1 % inhibition @ 1 uM [4] | inhibition at 1 µM [1] | inhibition at 1 µM [2] | inhibition at 1 µM [3] | inhibition at 1 µM [4] |
| --- | --- | --- | --- | --- | --- | --- | --- | --- |
| Cc1cc(C)c(C=C2C(=O)NN=C2c2ccncc2)[nH]1 [Compound 3] | 22% | −1% | 12% | 29% | – | – | – | – |
| O=C1NN=C(c2ccco2)C1=Cc1c[nH]c2ccccc12 [Compound 29, 3-(2-furyl)-4-(indol-3-ylmethylene)-2-pyrazolin-5-one] | – | – | – | – | 53% | 2% | 38% | 41% |
| Cc1cc(C)c(C=C2C(=O)NN=C2c2c(C)coc2C)[nH]1 [Compound 27] | 11% | −4% | 44% | 36% | – | – | – | – |
| N#CCCn1cc(C=C2C(=O)NN=C2c2ccco2)c2ccccc21 [Compound 67] | 22% | −1% | 8% | 23% | – | – | – | – |
| O=C1NN=C(c2cc3ccccc3o2)C1=Cc1c[nH]c2ccccc12 [Compound 58] | 51% | 4% | 43% | 24% | – | – | – | – |
| COc1ccc2[nH]cc(C=C3C(=O)NN=C3c3ccco3)c2c1 [Compound 51] | 25% | 3% | 47% | 9% | – | – | – | – |
| Cc1cc(C)c(C=C2C(=O)NN=C2c2cnccn2)[nH]1 [Compound 74, 4-[(3,5-dimethylpyrrol-2-yl)methylene]-3-pyrazin-2-yl-2-pyrazolin-5-one] | – | – | – | – | 74% | 17% | 72% | 48% |
| Cc1cccc2c(C=C3C(=O)NN=C3c3ccco3)c[nH]c12 [Compound 47] | 40% | −2% | 31% | 32% | – | – | – | – |
| O=C1NN=C(c2nccs2)C1=Cc1cn(Cc2ccccc2)c2ccccc12 [Compound 70] | 1% | 5% | 15% | 21% | – | – | – | – |
| Cc1cc(C)c(C=C2C(=O)NN=C2c2ccn(C)c2)[nH]1 [Compound 23] | 2% | −6% | 69% | 31% | – | – | – | – |
| O=C1NN=C(c2cccs2)C1=Cc1c[nH]c2ccccc12 [Compound 62] | 38% | −21% | 45% | 37% | – | – | – | – |
| O=C1NN=C(c2ccoc2)C1=Cc1ncc[nH]1 [Compound 15] | 12% | −12% | −17% | 10% | – | – | – | – |
| Cc1cc(C)c(C=C2C(=O)NN=C2c2cccn2C)[nH]1 [Compound 55] | 20% | 2% | 26% | 36% | – | – | – | – |
| O=C1NN=C(c2ccoc2)C1=Cc1c[nH]c2ccc(Cl)cc12 [Compound 17] | 17% | −8% | 19% | 13% | – | – | – | – |
| O=C1NN=C(c2nccs2)C1=Cc1c[nH]c2ccccc12 [Compound 25, 4-(indol-3-ylmethylene)-3-(1,3-thiazol-2-yl)-2-pyrazolin-5-one] | – | – | – | – | 66% | -4% | 48% | 52% |
| Cc1cccc2c(C=C3C(=O)NN=C3c3ccn(C)c3)c[nH]c12 [Compound 34] | 30% | 1% | 32% | 34% | – | – | – | – |
| Cn1ccc(C2=NNC(=O)C2=Cc2c[nH]c3ccccc23)c1 [Compound 24] | 39% | 4% | 38% | 39% | – | – | – | – |
| O=C1NN=C(c2cccs2)C1=Cc1cn(Cc2ccccc2)c2ccccc12 [Compound 75] | 5% | −5% | 24% | 26% | – | – | – | – |
| CN(C)c1ccc(C=C2C(=O)NN=C2c2ccco2)cc1 [Compound 52] | 0% | 5% | 19% | 10% | – | – | – | – |
| Cc1cc(C)c(C=C2C(=O)NN=C2c2ccco2)[nH]1 [Compound 28, 4-[(3,5-dimethylpyrrol-2-yl)methylene]-3-(2-furyl)-2-pyrazolin-5-one] | – | – | – | – | 36% | 10% | 50% | 37% |
| Cc1cc(C)c(C=C2C(=O)NN=C2c2nccs2)[nH]1 [Compound 26, 4-[(3,5-dimethylpyrrol-2-yl)methylene]-3-(1,3-thiazol-2-yl)-2 pyrazolin-5-one] | – | – | – | – | 64% | -7% | 57% | 46% |
| Cc1[nH]c(C=C2C(=O)NN=C2c2ccoc2)c(Br)c1Br [Compound 8] | 21% | 0% | 10% | 24% | – | – | – | – |
| CC(C)Cn1cc(C=C2C(=O)NN=C2c2nccs2)c2ccccc21 [Compound 73] | 12% | 12% | 5% | 19% | – | – | – | – |
